Measurements: paper PMC10178785 (ACS Chemical Biology, 2023)
Where two headings read alike, the source gives them in different places.

Columns and labels:
CHIKV Macro [1] = target: T1, CHIKV Macro (Chikungunya virus, UniProt Q8JUX6); format: binding
SARS-CoV-2 Macro1 [2] = target: T2, SARS-CoV-2 Macro1 (Severe acute respiratory syndrome coronavirus 2, UniProt P0DTD1); format: binding
human MacroD2 [3] = target: T3, human MacroD2 (Homo sapiens, UniProt A1Z1Q3); format: binding
VEEV Macro [4] = target: T4, VEEV Macro (Venezuelan equine encephalitis virus, UniProt P27282); format: binding
T4 sequence (P27282 1330-1489 limits assumed): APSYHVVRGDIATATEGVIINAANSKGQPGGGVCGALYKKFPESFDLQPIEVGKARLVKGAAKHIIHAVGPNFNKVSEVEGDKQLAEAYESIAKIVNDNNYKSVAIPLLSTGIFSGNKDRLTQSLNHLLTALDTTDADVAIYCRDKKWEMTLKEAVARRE

MacroD1 [5] = target: T5, MacroD1 (Homo sapiens, UniProt Q9BQ69); format: binding
T5 sequence (Q9BQ69 141-322 limits assumed): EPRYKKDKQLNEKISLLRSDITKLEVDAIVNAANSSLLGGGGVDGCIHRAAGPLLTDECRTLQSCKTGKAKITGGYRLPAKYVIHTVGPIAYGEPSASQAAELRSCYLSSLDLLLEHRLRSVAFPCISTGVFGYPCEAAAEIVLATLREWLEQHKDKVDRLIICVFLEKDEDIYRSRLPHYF

CHIKV Macro [6] = target: T1, CHIKV Macro; assay: biochemical; format: binding
human MacroD2 [7] = target: T3, human MacroD2; assay: biochemical; format: binding
VEEV Macro [8] = target: T4, VEEV Macro; assay: biochemical; format: binding
SARS Macro1 = SARS Macro1 (Severe acute respiratory syndrome coronavirus 2, UniProt P0DTD1); format: biochemical, SARS-CoV-2
MacroD1 [9] = target: T5, MacroD1; assay: biochemical; format: binding
PARP9 Macro2 = PARP9 Macro2 (Homo sapiens, UniProt Q8IXQ6); assay: biochemical; format: binding
MacroD1 [10] = target: T5, MacroD1; format: biochemical
SARS-CoV-2 Macro1 [11] = target: T2, SARS-CoV-2 Macro1; assay: biochemical; format: binding
MacroD1 [12] = target: T5, MacroD1; conditions: cited from earlier work

T3 sequence (A1Z1Q3 59-240 limits assumed): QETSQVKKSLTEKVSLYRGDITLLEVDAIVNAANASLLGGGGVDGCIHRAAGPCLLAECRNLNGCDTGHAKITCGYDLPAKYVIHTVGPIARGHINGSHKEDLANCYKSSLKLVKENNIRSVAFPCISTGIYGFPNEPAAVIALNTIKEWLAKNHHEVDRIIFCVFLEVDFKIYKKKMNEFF
T1 sequence (Q8JUX6 1334-1493 limits assumed): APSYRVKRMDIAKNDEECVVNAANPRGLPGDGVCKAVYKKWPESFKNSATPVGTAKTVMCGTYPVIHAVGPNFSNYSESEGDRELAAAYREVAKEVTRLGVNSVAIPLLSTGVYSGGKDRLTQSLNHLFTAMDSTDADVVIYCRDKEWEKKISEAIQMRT

| SMILES | IC50 (CHIKV Macro [6]) [µM] | IC50 (human MacroD2 [7]) [µM] | IC50 (VEEV Macro [8]) [µM] | IC50 (MacroD1 [9]) [µM] | IC50 (PARP9 Macro2) [µM] | IC50 (SARS-CoV-2 Macro1 [11]) [µM] | IC50 Fold Decrease Relative to ADPr: SARS Macro1 (SARS-CoV-2 Macro1 [11]) [fold] | also measured |
| --- | --- | --- | --- | --- | --- | --- | --- | --- |
| CN(C)c1ccc2c(c1)Oc1cc(N(C)C)ccc1C21OC(=O)c2cc(C(=O)NCCCCCCNC(=O)CCc3cn([C@H]4O[C@H](COP(=O)(O)OP(=O)(O)OC[C@H]5O[C@@H](n6cnc7c(N)ncnc76)[C@H](O)[C@@H]5O)[C@@H](O)[C@H]4O)nn3)ccc21 [TAMRA-ADPr] |  |  |  |  |  |  |  | mP shift (CHIKV Macro [1]): ~70 mP; mP shift (SARS-CoV-2 Macro1 [2]): over 110 mP; mP shift (human MacroD2 [3]): more than 100 mP; mP shift (VEEV Macro [4]): ~70 mP; mP shift (MacroD1 [5]): more than 100 mP |
| Nc1ncnc2c1ncn2[C@@H]1O[C@H](COP(=O)(O)OP(=O)(O)OC[C@H]2O[C@H](Oc3ccc4c(C(F)(F)F)cc(=O)oc4c3)[C@H](O)[C@@H]2O)[C@@H](O)[C@H]1O [TFMU-ADPr, ADP-ribosylated trifluoromethyl umbelliferone] | 37.6 ± 12.3 | 0.09 ± 0.02 | 4.24 ± 0.36 | 0.29 ± 0.02 | 10.9 ± 1.1 | 0.59 | 25 | MAR hydrolysis activity of SARS Macro1 in the presence of inhibitor (SARS Macro1): lowered MAR hydrolysis activity; MAR hydrolysis activity of MacroD1 in the presence of inhibitor (MacroD1 [10]): lowered MAR hydrolysis activity |
| Nc1ncnc2c1ncn2[C@@H]1O[C@H](COP(=O)(O)OP(=O)(O)OC[C@H]2OC(O)[C@H](O)[C@@H]2O)[C@@H](O)[C@H]1O (stereo partly drawn) [ADPr, adenine diphosphate ribose] |  |  |  |  |  |  |  | IC50 (VEEV Macro [8]; read-out: IC50 VEEV Macro): 18.3 ± 2.8 µM; IC50 (MacroD1 [9]; read-out: IC50 MacroD1): 1.42 ± 0.22 µM; Kd (MacroD1 [12]): 0.72 µM |
| N#C[C@@]1(c2ccc3c(N)ncnn23)O[C@H](CO)[C@@H](O)[C@H]1O [GS-441524] | > 100 | > 100 | > 100 | > 100 | > 100 |  |  |  |
| Nc1ncnc2c1ncn2[C@@H]1O[C@H](COP(=O)(O)OP(=O)(O)OC[C@H]2O[C@H](Oc3ccc([N+](=O)[O-])cc3)[C@H](O)[C@@H]2O)[C@@H](O)[C@H]1O [pNP-ADPr, ADP-ribosylated p-nitrophenol] | 22.8 ± 5.7 | 0.15 ± 0.01 | 10.7 ± 0.9 | 0.96 ± 0.07 | 4.5 ± 0.4 | 0.37 | 40 | MAR hydrolysis activity of SARS Macro1 in the presence of inhibitor (SARS Macro1): lowered MAR hydrolysis activity; MAR hydrolysis activity of MacroD1 in the presence of inhibitor (MacroD1 [10]): lowered MAR hydrolysis activity |
| Nc1ncnc2c1ncn2[C@@H]1O[C@H](COP(=O)(O)O)[C@@H](O)[C@H]1O[C@@H]1O[C@H](COP(=O)(O)O)[C@@H](O)[C@H]1O [iso-ADPr] |  |  |  |  |  |  |  | Competition with the tracer in macrodomain binding (CHIKV Macro [6]): did not compete; Competition with the tracer in macrodomain binding (human MacroD2 [7]): did not compete; Competition with the tracer in macrodomain binding (VEEV Macro [8]): did not compete; Competition with the tracer in macrodomain binding (MacroD1 [9]): did not compete; Competition with the tracer in macrodomain binding (PARP9 Macro2): did not compete; Competition with the tracer in macrodomain binding (SARS-CoV-2 Macro1 [11]): did not compete |
| [N-]=[N+]=NC1OC(COP(=O)(O)OP(=O)(O)OCC2OC(n3cnc4c(N)ncnc43)C(O)C2O)C(O)C1O (stereo not drawn) [ADPr-N3] |  |  |  |  |  | 7.23 ± 0.94 | ~2 |  |
